Article PMC11992225, “Antibacterial compounds against non-growing and intracellular bacteria” (npj Antimicrobials and Resistance, 2025)
Values after ≈ are worked out from the molar mass of the structure shown. Where two headings read alike, the source gives them in different places.

Assays:
P. aeruginosa DSM1117 = assay: MIC, standard microdilution assay, growing P. aeruginosa; type: cell-based, Pseudomonas aeruginosa; conditions: Pseudomonas aeruginosa
How it was run: (§1)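 Broth microdilution was used throughout. UPEC, P. aeruginosa and S. aureus were tested in CA-MHB buffered with 40 mM HEPES (pH 7.4); UPEC was additionally tested in LPM with 30 mM MES (pH 5.5). S. flexneri was grown in TSB. All determinations were run in triplicate.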

S. flexneri 5a M90T = assay: MIC in tryptic soy broth, S. flexneri; type: cell-based, Shigella flexneri; conditions: Shigella flexneri, 5AM90T, read-out: MIC (μM) TSB
How it was run: as §1

non-growing UPEC CFT073 = assay: Dilution-regrowth assay (screen, hit validation, dose-response) on stationary-phase UPEC; type: cell-based, Escherichia coli; conditions: for EC50: Escherichia coli; for Regrowth, OD600 at 6h or 8h after dilution into drug-free medium: average
How it was run: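 Regrowth (OD600 after 6 h, 37 °C) of diluted non-growing CFT073, following 24 h compound treatment of 24 h stationary cultures, defines activity relative to untreated control. Screen at 20 µM, validation at 20, 10, 5 µM (duplicates), dose–response in three biological replicates fitted by five-parameter logistic.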

[1] = test system: non-growing P. aeruginosa DSM1117; assay: Dilution-regrowth assay (OD600, start-growth-time) on stationary-phase P. aeruginosa; type: cell-based, Pseudomonas aeruginosa; conditions: for EC50: Pseudomonas aeruginosa; for Regrowth, OD600 at 6h or 8h after dilution into drug-free medium: average
Method: To determine the spectrum of activity of the compounds that were effective against non-growing UPEC, we further assessed their efficacy against the well-characterized Gram-negative and Gram-positive reference strains P. aeruginosa DSM1117 and S. aureus DSM2569, respectively. The cultures were grown and treated for 24 h in 1:4 CA-MHB (pH 7.4). […].
For better characterization of the compounds causing the strongest regrowth delay, we performed the regrowth step of the dilution-regrowth experiments on a plate reader, measuring the OD600 at 20-min intervals for over 20 h instead of using an endpoint measurement. This approach allowed us to capture the time when cultures reached a threshold optical density (start-growth-time, SGT[15]).
Overnight cultures of UPEC, P. aeruginosa and S. aureus were grown in test tubes containing 3 ml of LB broth (~16 h), then diluted 1:100 into either 1:4 diluted CA-MHB medium buffered with 40 mM HEPES (pH 7.4) or, in case of UPEC, into LPM medium[25] supplemented with 49 µM MgCl2 and buffered with 30 mM MES (pH 5.5). The cultures were incubated for 24 h in non-baffled Erlenmeyer flasks at 37 °C with shaking at 200 rpm.
For P. aeruginosa and S. aureus, dose–response analysis was conducted in 96-well plates with a 200 μl assay volume, following the procedure used for screening assay validation experiments. Aliquots of the 39 compounds active against non-growing UPEC were obtained from SelleckChem and MedChem Express. Stock solutions were prepared and stored according to the manufacturers’ instructions, then diluted in 10% DMSO before use. Cultures were incubated for 24 h in 1:4 diluted CA-MHB medium under the same conditions used for UPEC cultivation. In preliminary experiments, each compound was tested at a concentration of 20 μM in the dilution-regrowth assay with 4 technical replicates. Regrowth was monitored using a microplate reader at 37 °C with continuous shaking, and OD600 was recorded every 20 min. The time at which OD600 exceeded the threshold of 0.12 was recorded as the Start_Growth-Time.
The statistical analysis of all data, as well as EC50 and IC50 determination, was conducted using GraphPad Prism 10.2.3. Statistical significance of the drug effects was assessed using a one-way ANOVA followed by Dunnett’s test, comparing each treatment to the drug-free control. Statistical significance of the differences in chemical characteristics between the hit compounds and the Prestwick library was assessed using a Mann–Whitney test. Statistical significance was set at P ≤ 0.05. A five-parameter logistic equation was used for asymmetric sigmoidal curve fitting and for EC50 and IC50 determination. The Venn diagram in Fig. 1F was prepared using BioVenn web application. Characteristics of the chemical and physical properties of Prestwick library compounds were obtained from Supplementary Table S1 from reference. Characteristics of the hit compounds not included in the Prestwick library were retrieved from the PubChem database.

[2] = DSM1117, P. aeruginosa, 1:4 diluted CA-MHB pH 7.4, read-out: MIC (μM) 1:4 CA-MHB
[3] = DSM1117, P. aeruginosa, CA-MHB pH 7.4, read-out: MIC (μM) CA-MHB
[4] = E. coli, pH 7.4, regrowth delay of non-growing bacteria, 1:4 CA-MHB, 24 h treatment, OD600 6 h after 2500-fold dilution, read-out: EC50
[5] = DSM1117, P. aeruginosa, regrowth delay of non-growing bacteria, 1:4 CA-MHB pH 7.4, 24 h treatment, OD600 8 h after dilution, read-out: EC50

In the case of `C[C@H]1NCc2cc(-c3ccc4c(=O)c(C(=O)O)cn(C5CC5)c4c3OC(F)F)ccc21` [Garenoxacin], the MIC (P. aeruginosa DSM1117; [2]) is reported as 4 µM (≈ 1.71 µg/mL), the MIC (P. aeruginosa DSM1117; [3]) is reported as 4 µM (≈ 1.71 µg/mL) and the MIC (S. flexneri 5a M90T) is reported as 0.0625 µM (≈ 0.0267 µg/mL). It also gave an EC50 (non-growing UPEC CFT073; [4]) of 2190 nM and an EC50 [1, 5] of 978 nM.

`COc1c(N2CCNC(C)C2)c(F)cc2c(=O)c(C(=O)O)cn(C3CC3)c12` (stereo not drawn) [Gatifloxacin] gave an MIC (P. aeruginosa DSM1117; [2]) of 4 µM (≈ 1.5 µg/mL), an MIC (P. aeruginosa DSM1117; [3]) of 4 µM (≈ 1.5 µg/mL) and an MIC (S. flexneri 5a M90T) of 0.0312 µM (≈ 0.0117 µg/mL). It also gave an EC50 (non-growing UPEC CFT073; [4]) of 709 nM and an EC50 [1, 5] of 182 nM.

`CO/N=C1\CN(c2nc3c(cc2F)c(=O)c(C(=O)O)cn3C2CC2)CC1CN` (stereo not drawn) [Gemifloxacin] gave an MIC (P. aeruginosa DSM1117; [2]) of 2 µM (≈ 0.779 µg/mL), an MIC (P. aeruginosa DSM1117; [3]) of 1 µM (≈ 0.389 µg/mL) and an MIC (S. flexneri 5a M90T) of 0.0156 µM (≈ 0.00608 µg/mL). For the same molecule, the “Regrowth, OD600 at 6h or 8h after dilution into drug-free medium” value (non-growing UPEC CFT073; E. coli in 1:4 CA-MHB (pH 7.4), concentration 0.25) was 0.556, the “Regrowth, OD600 at 6h or 8h after dilution into drug-free medium” value (non-growing UPEC CFT073; E. coli in 1:4 CA-MHB (pH 7.4), concentration 0.5) was 0.511 and the “Regrowth, OD600 at 6h or 8h after dilution into drug-free medium” value (non-growing UPEC CFT073; E. coli in 1:4 CA-MHB (pH 7.4), concentration 1) was 0.206. The “Regrowth, OD600 at 6h or 8h after dilution into drug-free medium” value (non-growing UPEC CFT073; E. coli in 1:4 CA-MHB (pH 7.4), concentration 2.5) was 0.090, the “Regrowth, OD600 at 6h or 8h after dilution into drug-free medium” value (non-growing UPEC CFT073; E. coli in 1:4 CA-MHB (pH 7.4), concentration 5) was 0.086 and the “Regrowth, OD600 at 6h or 8h after dilution into drug-free medium” value (non-growing UPEC CFT073; E. coli in 1:4 CA-MHB (pH 7.4), concentration 10) was 0.083. The “Regrowth, OD600 at 6h or 8h after dilution into drug-free medium” value (non-growing UPEC CFT073; E. coli in 1:4 CA-MHB (pH 7.4), concentration 30) was 0.082, the “Regrowth, OD600 at 6h or 8h after dilution into drug-free medium” value (non-growing UPEC CFT073; E. coli in LPM (pH 5.5), concentration 0.25) was 0.559 and the “Regrowth, OD600 at 6h or 8h after dilution into drug-free medium” value (non-growing UPEC CFT073; E. coli in LPM (pH 5.5), concentration 0.5) was 0.564. The “Regrowth, OD600 at 6h or 8h after dilution into drug-free medium” value (non-growing UPEC CFT073; E. coli in LPM (pH 5.5), concentration 1) was 0.562, the “Regrowth, OD600 at 6h or 8h after dilution into drug-free medium” value (non-growing UPEC CFT073; E. coli in LPM (pH 5.5), concentration 2.5) was 0.529 and the “Regrowth, OD600 at 6h or 8h after dilution into drug-free medium” value (non-growing UPEC CFT073; E. coli in LPM (pH 5.5), concentration 5) was 0.513. The “Regrowth, OD600 at 6h or 8h after dilution into drug-free medium” value (non-growing UPEC CFT073; E. coli in LPM (pH 5.5), concentration 10) was 0.417, the “Regrowth, OD600 at 6h or 8h after dilution into drug-free medium” value (non-growing UPEC CFT073; E. coli in LPM (pH 5.5), concentration 30) was 0.143 and the EC50 (non-growing UPEC CFT073; [4]) was 752 nM. For the same molecule, the “Regrowth, OD600 at 6h or 8h after dilution into drug-free medium” value ([1]; P. aeruginosa, concentration 0.1) was 0.486, the “Regrowth, OD600 at 6h or 8h after dilution into drug-free medium” value ([1]; P. aeruginosa, concentration 0.5) was 0.138 and the “Regrowth, OD600 at 6h or 8h after dilution into drug-free medium” value ([1]; P. aeruginosa, concentration 2.5) was 0.091. The “Regrowth, OD600 at 6h or 8h after dilution into drug-free medium” value ([1]; P. aeruginosa, concentration 10) was 0.090 and the EC50 [1, 5] was 165 nM.

Molecule `CO[C@@]12[C@H](COC(N)=O)C3=C(C(=O)C(C)=C(N)C3=O)N1C[C@@H]1N[C@@H]12` [Mitomycin C] has an MIC (P. aeruginosa DSM1117; DSM1117, pH 7.4, read-out: MIC (μM) 1:4 CA-MHB) of 10 µM (≈ 3.34 µg/mL), an MIC (P. aeruginosa DSM1117; DSM1117, pH 7.4, read-out: MIC (μM) CA-MHB) of 10 µM (≈ 3.34 µg/mL) and an MIC (S. flexneri 5a M90T) of 1 µM (≈ 0.334 µg/mL). For the same molecule, the “Regrowth, OD600 at 6h or 8h after dilution into drug-free medium (average)” value (non-growing UPEC CFT073; E. coli in 1:4 CA-MHB (pH 7.4), drug concentration 0.25) was 0.575, the “Regrowth, OD600 at 6h or 8h after dilution into drug-free medium (average)” value (non-growing UPEC CFT073; E. coli in 1:4 CA-MHB (pH 7.4), drug concentration 0.5) was 0.556 and the “Regrowth, OD600 at 6h or 8h after dilution into drug-free medium (average)” value (non-growing UPEC CFT073; E. coli in 1:4 CA-MHB (pH 7.4), drug concentration 1) was 0.551. The “Regrowth, OD600 at 6h or 8h after dilution into drug-free medium (average)” value (non-growing UPEC CFT073; E. coli in 1:4 CA-MHB (pH 7.4), drug concentration 2.5) was 0.482, the “Regrowth, OD600 at 6h or 8h after dilution into drug-free medium (average)” value (non-growing UPEC CFT073; E. coli in 1:4 CA-MHB (pH 7.4), drug concentration 5) was 0.179 and the “Regrowth, OD600 at 6h or 8h after dilution into drug-free medium (average)” value (non-growing UPEC CFT073; E. coli in 1:4 CA-MHB (pH 7.4), drug concentration 10) was 0.065. For the same molecule, the “Regrowth, OD600 at 6h or 8h after dilution into drug-free medium (average)” value (non-growing UPEC CFT073; E. coli in 1:4 CA-MHB (pH 7.4), drug concentration 30) was 0.063, the “Regrowth, OD600 at 6h or 8h after dilution into drug-free medium (average)” value (non-growing UPEC CFT073; E. coli in LPM (pH 5.5), drug concentration 0.25) was 0.474 and the “Regrowth, OD600 at 6h or 8h after dilution into drug-free medium (average)” value (non-growing UPEC CFT073; E. coli in LPM (pH 5.5), drug concentration 0.5) was 0.440. The “Regrowth, OD600 at 6h or 8h after dilution into drug-free medium (average)” value (non-growing UPEC CFT073; E. coli in LPM (pH 5.5), drug concentration 1) was 0.294, the “Regrowth, OD600 at 6h or 8h after dilution into drug-free medium (average)” value (non-growing UPEC CFT073; E. coli in LPM (pH 5.5), drug concentration 2.5) was 0.140 and the “Regrowth, OD600 at 6h or 8h after dilution into drug-free medium (average)” value (non-growing UPEC CFT073; E. coli in LPM (pH 5.5), drug concentration 5) was 0.136. For the same molecule, the “Regrowth, OD600 at 6h or 8h after dilution into drug-free medium (average)” value (non-growing UPEC CFT073; E. coli in LPM (pH 5.5), drug concentration 10) was 0.136, the “Regrowth, OD600 at 6h or 8h after dilution into drug-free medium (average)” value (non-growing UPEC CFT073; E. coli in LPM (pH 5.5), drug concentration 30) was 0.134 and the EC50 (non-growing UPEC CFT073; pH 5.5) was 706 nM. For the same molecule, the EC50 (non-growing UPEC CFT073; pH 5.5, read-out: EC50 (regrowth inhibition curve, Fig. S4)) was 690 nM, the EC50 (non-growing UPEC CFT073; pH 7.4) was 3680 nM and the EC50 (non-growing UPEC CFT073; pH 7.4, read-out: EC50 (regrowth inhibition curve, Fig. S4)) was 3770 nM. The “activity against non-growing UPEC in LPM (pH 5.5) compared to 1:4 CA-MHB (pH 7.4)” value (non-growing UPEC CFT073; regrowth delay and killing, Figs. 2 and 3) was “potentiated by the low pH”, the “Regrowth, OD600 at 6h or 8h after dilution into drug-free medium (average)” value ([1]; P. aeruginosa, drug concentration 0.1) was 0.203 and the “Regrowth, OD600 at 6h or 8h after dilution into drug-free medium (average)” value ([1]; P. aeruginosa, drug concentration 0.5) was 0.116. For the same molecule, the “Regrowth, OD600 at 6h or 8h after dilution into drug-free medium (average)” value ([1]; P. aeruginosa, drug concentration 2.5) was 0.094, the “Regrowth, OD600 at 6h or 8h after dilution into drug-free medium (average)” value ([1]; P. aeruginosa, drug concentration 10) was 0.095 and the EC50 ([1]; DSM1117, pH 7.4) was 28 nM.
